# Measured values as given in patent US20080201790A1, “Method and product for regulating cell responsiveness to external signals” (priority 1993, published 2008).
# Columns and labels:
# [1] = tested on: Swiss 3T3 cells and REF52 cells; assay: Beauvericin-induced apoptosis, anti-tubulin and propidium iodide staining; type: cell-based; conditions: 50 μM, 6 hours at 37° C.
# Method: A first group of transfected Swiss 3T3 cells and REF52 cells were treated with 50 μM beauvericin for 6 hours at 37° C. Beauvericin is a compound known to induce apoptosis in mammalian cells. A second group of cells were treated with a control buffer lacking beauvericin. The treated cells were then fixed in paraformaldehyde and permeabilized with saponin using protocols standard in the art. The permeabilized cells were then labelled by incubating the cells with a fluorescein-labelled anti-tubulin antibody (1:500; obtained from GIBCO, Gaithersburg, Md.) to detect cytoplasmic shrinkage or 10 μM propidium iodide (obtained from Sigma, St. Louis, Mo.) to stain DNA to detect nuclear condensation. The labelled cells were then viewed by differential fluorescent imaging using a Nikon Diaphot fluorescent microscope.
# [2] = target: GST-Cdc42 (Homo sapiens, UniProt P60953); assay: Binding of MEKK4 to GST fusion protein on glutathione-Sepharose, Cdc42
# Sequence of GST-Cdc42 (P60953 whole entry, the tested form may be a part): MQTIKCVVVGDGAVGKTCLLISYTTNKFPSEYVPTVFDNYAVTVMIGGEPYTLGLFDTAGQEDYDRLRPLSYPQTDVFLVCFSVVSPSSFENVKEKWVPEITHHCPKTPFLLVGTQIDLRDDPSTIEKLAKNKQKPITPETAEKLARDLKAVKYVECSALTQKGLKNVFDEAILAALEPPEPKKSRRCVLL
# Method: (§1) GST fusion proteins encoding Cdc42 or Rac loaded with either GTPγs or GDP were incubated with MEKK4 using previously described methods (Russell, M. et al. (1995) J. Biol. Chem. 270:11757-11760). The source of MEKK4 was either from a Cos cell transient transfection or a recombinant MEKK4 protein expressed in E. coli. The recombinant MEKK4 protein was truncated to express residues from 1261-1597 of the full length protein. A GST fusion protein of Ha-Ras was used as a control. The MEKK4 protein was incubated for 1 hr at 4° C. with either GST-Cdc42, GST-Rac or GST-Ras bound to glutathione-Sepharose beads. Each GST fusion protein had GTPγs or GDP bound to the Cdc42, Rac or Ras moiety of the fusion protein. Following the incubation the beads were washed extensively and the bound proteins removed in SDS-Laemmli buffer and resolved by SDS-PAGE using 10% acrylamide gels. The proteins were transferred to nitrocellulose and immunoblotted using a MEKK4 specific antibody recognizing the extreme COOH-terminus of MEKK4. […] The GDP bound forms of GST-Cdc42 and GST-Rac bound less than 10% of the MEKK4 bound in the presence of GTPγs.
# [3] = target: GST-Rac (Homo sapiens, UniProt P63000); assay: Binding of MEKK4 to GST fusion protein on glutathione-Sepharose, Rac
# Method: as §1
# [4] = target: GST-Ras (Homo sapiens, UniProt P01112); assay: Binding of MEKK4 to GST fusion protein on glutathione-Sepharose, Ras; conditions: GTPγS or GDP bound form
# Sequence of GST-Ras (P01112 whole entry, the tested form may be a part): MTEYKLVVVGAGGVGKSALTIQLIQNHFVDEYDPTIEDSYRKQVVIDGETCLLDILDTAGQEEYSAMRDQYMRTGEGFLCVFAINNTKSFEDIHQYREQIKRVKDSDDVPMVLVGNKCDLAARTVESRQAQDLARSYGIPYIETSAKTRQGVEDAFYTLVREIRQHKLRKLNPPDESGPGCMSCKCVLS
# Method: as §1
# [5] = tested on: GST-Ras^V12; assay: Binding of COS cell-expressed MEKK1 proteins to GST-Ras^V12 agarose; conditions: COS cell lysates, immunoblot
# Source text: COS cells were transiently transfected by the DEAE-dextran protocol as generally described in Example 3. Cos cells were transfected with: (1) p-MEKK1 containing a nucleic acid molecule encoding MEKK1 as described in Lange-Carter et al. (Science 260:315-319, […]); (2) p-MEKKNH2 containing a nucleic acid molecule that encodes a 858 base pair Pvull(682)-Ncol(1541) restriction digest fragment of the amino terminus of MEKK1 ligated into pCMV5; (3) p-MEKKCOOH containing a nucleic acid molecule that encodes a 1435 base pair Ncol(1541)-Sspl(2976) restriction digest fragment that includes the entire kinase domain of MEKK1 ligated into pCMV5; (4) pCMV5 without insert; or (5) p-C4Raf containing a nucleic acid molecule that encodes the amino terminus of Raf-1 ligated into pCMV5. COS cells expressing the various MEKK1 proteins were […] COS cells expressing the various MEKK1 proteins were lysed in EB (1% Triton X-100, 10 mM Tris HCl [pH 7.4], 5 mM EDTA, 50 mM NaCl, 50 mM NaF, 0.1% bovine serum albumin, 0.2 U/ml aprotinin, 1 mM phenylmethylsulfonyl fluoride and 2 mM Na3 VO4). The lysates were separated into two equal parts for separate binding reactions. Half of the lysate was incubated with GST agarose (1.5 μg) while half of the lysate was incubated with GST-Ras^V12 agarose (1.5 μg) (purchased from UBI) for 1 hr at 4° C. […]
# [6] = tested on: Raf; assay: Raf activation assay (immunoprecipitated Raf, kinase-inactive MEK-1) in NIH3T3 cells; type: cell-based
# Method: (§2) Differential regulation of MEK in Rat 1a and NIH3T3 cells expressing gip2, v-src, v-ras, or v-raf led the present inventor to investigate the protein kinases that are putative regulators of MEK-1. Recently, it was shown that Raf-1 can phosphorylate and activate MEK. […] Cells were serum starved and challenged in the presence or absence of the appropriate growth factors, as described above. […] Cells were lysed by scraping in ice cold RIPA buffer (50 mM Tris, pH 7.2, 150 mM NaCl, 0.1% SDS, 0.5% sodium deoxycholate, 1.0% Triton X 100, 10 mM sodium pyrophosphate, 25 mM sodium glycerophosphate, 2 mM sodium vanadate, 2.1 μg/ml aprotinin) and were microfuged for 10 min to remove nuclei. The supernatants were normalized for protein content and precleared with protein A Sepharose prior to immunoprecipitation with rabbit antiserum to the C terminus of Raf-1 and protein A Sepharose for 2-3 h at 4° C. The beads were washed twice with ice cold RIPA and twice with PAN (10 mM Pipes, pH 7.0, 100 mM NaCl, 21 μg/ml aprotinin). A portion of the immunoprecipitate was diluted with SDS sample buffer and used for immunoblot analysis. […] Wild type recombinant MEK-1 was autophosphorylated in parallel as a marker. Reactions were terminated by the addition of 12.5 μl 5×SDS sample buffer, boiled for 5 minutes and subjected to SDS-PAGE and autoradiography.
# [7] = tested on: MEK; assay: MEK activity in cell lysates from thrombin stimulated Rat 1a cells; type: cell-based
# Source text: This Example Describes the Determination of Whether a Similar or Distinct MEK Activity is Involved in Activation of MAPK Though Gi Protein Coupled Receptors by Measuring MEK Activity in Cell Lysates from Thrombin Stimulated Rat 1a Cells
# [8] = tested on: Raf; assay: Raf activation assay (immunoprecipitated Raf, kinase-inactive MEK-1) in Rat 1a cells; type: cell-based
# Method: as §2
# [9] = tested on: MAPK; assay: Thrombin stimulation of MAPK; type: cell-based
# [10] = tested on: 98 kD PC12 cell MEKK; assay: MEKK immunoprecipitate kinase assay from PC12 cells with kinase inactive MEK-1; type: cell-based; conditions: serum starved PC12 cells
# Method: Reactions were stopped by the addition of 2×SDS sample buffer (20 μl). The samples were boiled for 3 minutes and subjected to SDS-PAGE and autoradiography. Raf-B was immunoprecipitated from the same untreated and treated PC12 cell lysates as above with an antiserum to a COOH-terminal peptide of Raf-B (Santa Cruz Biotechnology, Inc.) and assayed similarly. Raf-1 was immunoprecipitated with an antiserum to the 12 COOH-terminal amino acids of Raf-1 (Santa Cruz Biotechnology, Inc.).
# Data represent the relative magnitude of the response for each timepoint as quantitated by phosphorimager analysis of radioactive gels from a typical experiment.
# Expression of N^17Ras was induced in PC12 clones stably transfected with the N^17Ras gene by the addition of dexamethasone to the starvation media. […] PC12 cell clones stably transfected with the N^17Ras gene are less responsive to EGF-mediated activation of MEKK activity than are wild type PC12 cells. […] MEKK activity in immunoprecipitates or column fractions was dissociable from that of EGF-stimulated c-Raf-1 and Raf-B activities.
# To determine whether the growth factor-mediated activation of 98 kD PC12 cell MEKK was inhibited by PKA, forskolin was used to elevate intracellular cAMP and activate PKA. […] Raf-B activity was also assayed from the same cell lysates to test whether its regulation differed from that of MEKK. Raf-B was immunoprecipitated from the same cell lysates as described above and assayed for its ability to phosphorylate MEK-1 as described above.
# [11] = tested on: MEKK1; assay: Cellular localization of MEKK1 in Swiss 3T3 cells, antibody staining; type: cell-based; conditions: serum starved Swiss 3T3 cells, 10 minutes
# Source text: (§3) Cells were fixed and stained with an antibody specifically recognizing either MEKK1 or MEKK2. Secondary FITC-conjugated anti-rabbit IgG antibody was used for staining.
# [12] = tested on: Raf-B; assay: Raf-B immunoprecipitate kinase assay from PC12 cells with kinase inactive MEK-1; type: cell-based; conditions: EGF 30 ng/ml, serum starved PC12 cells
# [13] = tested on: MEKK2; assay: Cellular localization of MEKK2 in Swiss 3T3 cells, antibody staining; type: cell-based; conditions: serum starved Swiss 3T3 cells, 10 minutes
# Source text: as §3
substance,measurement,setting,value
beauvericin,morphology characteristic of apoptosis,[1],cytoplasmic shrinkage (monitored by the anti-tubulin antibodies) and nuclear condensation
"MEKK4: MEK kinase 4 protein, SEQ ID No. 12 / 14",binding to Cdc42 in the GTPγS form,"[2]; 1 hr at 4° C., immunoblot",specifically bound
same,MEKK4 bound by GDP form relative to GTPγs form,[2]; GST-Cdc42,less than 10%
same,binding to Rac in the GTPγS form,"[3]; 1 hr at 4° C., immunoblot",specifically bound
same,MEKK4 bound by GDP form relative to GTPγs form,[3]; GST-Rac,less than 10%
same,binding to Ras,[4],did not bind significantly
C4Raf: amino terminus of Raf-1 encoded by p-C4Raf [reference compound],binding to GST-Ras^V12 (in words),[5],bound to GST-Ras^V12(GTPγS) agarose
thrombin,activation of Raf (in words),[6],does not
same,magnitude of MEK activity relative to EGF stimulation,[7],two to three-fold less
same,stimulation of MEK over basal,[7],two to three-fold over basal
same,activation of Raf (in words),[8]; Rat 1a cells,did not measurably activate Raf
same,time of maximal stimulation of MAPK,[9],3 min
"EGF: human EGF, epidermal growth factor",persistence of MEKK activation,[10]; EGF 30 ng/ml,at least 30 minutes
same,MEKK activity after stimulation (in words),[10]; 5 minutes,increased MEKK activity
same,cellular localization of MEKK1,[11],induced a dramatic translocation of MEKK1 to the plasma membrane
same,activation of Raf,[6],approximately 2.7 fold
same,Raf catalyzed phosphorylation of MEK-1,[8]; Gip2 expressing Rat 1a cells,1.8 fold
same,Raf phosphorylation of recombinant MEK-1 over basal,[8]; Rat 1a cells,approximately 2.6 fold
same,Raf catalyzed phosphorylation of MEK-1,[8]; v-Src expressing Rat 1a cells,1.4 fold
same,time of peak Raf-B activity,[12],3 to 5 min
same,cellular localization of MEKK2,[13],did not effect the cellular localization of MEKK2
